This note sets out measurements from patent US12195557B2, “Optimised compounds” (AXELIA ONCOLOGY PTY LTD, priority 2017, dated 2025).

Entries after “also recorded” stand apart in the source; their conditions may differ. Like-named read-outs stand apart in the source and are kept apart here.

Data set [1] can be described thus: in vitro. The following applies: rat, rat plasma.
Data set [2] relates to other TLR pattern recognition receptors (hTLR3, hTLR4, hTLR5, hTLR7, hTLR8, hTLR9). In words: TLR panel, NF-κB inducible SEAP reporter in HEK293 cells: other TLRs. The format is cell-based, human and mouse. The method, then:
INNA-006 was assessed for its ability to activate a range of other TLR pattern recognition receptors. These assessments were conducted using both human and mouse TLR panels. These assays detect a secreted embryonic alkaline phosphatase (SEAP) reporter under the control of a promoter which is inducible by NF-κB activation in HEK293 cells. The secreted embryonic alkaline phosphatase (SEAP) reporter is under the control of a promoter inducible by the transcription factor NF-κB. This reporter gene allows the monitoring of signaling through the TLR, based on the activation of NF-κB. In a 96-well plate (200 μL total volume) containing the appropriate cells (50,000-75,000 cells/well), 20 μL of the test article or the positive control ligand is added to the wells. The media added to the wells is designed for the detection of NF-κB induced SEAP expression. After a 16-24 hr incubation the optical density (OD) is read at 650 nm on a Molecular Devices SpectraMax 340PC absorbance detector. • hTLR2: HKLM (heat-killed Listeria monocytogenes) at 1×10^8 cells/mL • hTLR3: Poly(I:C) HMW at 1 μg/mL • hTLR4: E. coli K12 LPS at 100 ng/mL • hTLR5: S. typhimurium flagellin at 100 ng/mL • hTLR7: CL307 at 1 μg/mL • hTLR8: CL075 at 1 μg/mL • hTLR9: CpG ODN2006 at 1 μg/mL.

A short description of data set [3]: in vitro. The following applies: human, hepatocytes.
Data set [4] has as its system A/Udorn/307/72 (H3N2) influenza virus. The format is in vivo, C57BL/6 mice.

For the compound `CCC(=O)OCC(CSCC(N)C(=O)NC(CO)C(=O)NCCOCC(=O)NCC(N)=O)OC(=O)CC` (stereo not drawn) [INNA-006, Pam2Cys-Ser-PEG], the half-life in “in vitro [1]” is 5.7 h. Besides, in data set [2], the “activation of any other TLR tested” value is recorded as “no activation”. The compound further yielded a half-life at 0.5 μM in the data set “in vitro [3]” of over 6.25 h. The intrinsic clearance (hepatocyte CLint) at 0.5 μM in the data set “in vitro [3]” was under 2 µL/min/1e6 cells. Besides, the “progression of influenza virus to the lungs (lung viral titre)” value in data set [4] (0.005 nmoles intranasal 1 day prior to 500 pfu Udorn challenge, n=5, day 5 (Example 4)) was “partial inhibition”; in data set [4] (0.05 nmoles intranasal 1 day prior to challenge, n=10 (Example 5)), “partial inhibition”; in data set [4] (0.1 nmoles intranasal 1 day prior to 500 pfu Udorn challenge, n=5, day 5 (Example 4)), “significantly inhibited”; in data set [4] (0.5 nmoles intranasal 1 day prior to challenge, n=10 (Example 5)), “significantly inhibited”; in data set [4] (5 nmoles intranasal 1 day prior to 500 pfu Udorn challenge, n=5, day 5 (Example 4)), “significantly inhibited”; in data set [4] (5 nmoles intranasal 1 day prior to challenge, n=10 (Example 5)), “significantly inhibited”. Also, the “progression of influenza virus to the lungs (lung viral titre)” value in data set [4] (3 doses of 0.5 nmoles (days 0, 2, 4), challenge one day after third dose (Example 7)) is “major reduction in viral load in the lungs; also recorded: significant reduction in dissemination of virus to lungs; also recorded: significantly inhibited”. For the same compound, the “times more effective than INNA-003 at inhibiting viral progression” value in data set [4] (3 doses of 0.5 nmoles (Example 7, FIG. 10)) is 10-100 times. The “times more effective than INNA-003 or Pam2Cys-SK4 at inhibiting viral progression” value in data set [4] (single dose 1 day prior to challenge (Example 4)) is 10-100 times.

In general, half-life refers to the time needed for the level to fall by half in the phase considered. Usually hepatocyte CLint stands for the rate of metabolic loss divided by the concentration.
